Drawing on patent US20240360082A1, “SUBSTITUTED PYRIDONE COMPOUNDS USEFUL TO TREAT ORTH[…]” (priority 2021, published 2024), this text covers IC50 for 31 molecules.

pIC50: −log10 of the molar value.

Sequence of influenza A virus minigenome (PB2, PB1, PA, NP proteins) (P04665 whole entry): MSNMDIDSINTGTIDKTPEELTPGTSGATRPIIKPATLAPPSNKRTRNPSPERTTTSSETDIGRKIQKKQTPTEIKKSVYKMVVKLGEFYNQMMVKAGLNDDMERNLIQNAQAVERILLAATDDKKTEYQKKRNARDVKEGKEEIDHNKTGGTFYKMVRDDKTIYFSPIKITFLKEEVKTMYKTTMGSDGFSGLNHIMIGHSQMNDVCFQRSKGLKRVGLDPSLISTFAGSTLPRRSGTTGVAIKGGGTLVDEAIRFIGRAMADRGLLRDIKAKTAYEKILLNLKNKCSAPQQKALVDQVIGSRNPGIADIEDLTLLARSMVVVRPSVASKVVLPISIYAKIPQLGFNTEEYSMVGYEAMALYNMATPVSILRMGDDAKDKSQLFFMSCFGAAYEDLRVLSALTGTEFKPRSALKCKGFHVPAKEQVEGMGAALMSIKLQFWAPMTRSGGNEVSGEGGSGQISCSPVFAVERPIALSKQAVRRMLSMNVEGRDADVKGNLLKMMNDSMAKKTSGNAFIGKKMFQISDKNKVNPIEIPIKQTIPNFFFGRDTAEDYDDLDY

The first assay addresses influenza A virus minigenome (PB2, PB1, PA, NP proteins) (UniProt P04665). The format is cell-based. Conditions: read-out: RNP_ Hubei B IC50.
As for `CC(C)(C)OC(=O)N1C[C@H](F)C[C@H]1COc1ccc(-c2cc(C(N)=O)c(=O)[nH]c2C(F)(F)F)cc1` [Example 305, Tert-butyl (2S,4R)-2-((4-(5-carbamoyl-6-oxo-2-(trifluoromethyl)-1,6-dihydropyridin-3-yl)phenoxy)methyl)-4-fluoropyrrolidine-1-carboxylate], the pIC50 was 4.30 to 4.60. As for `NC(=O)c1cc(-c2ccc(OCC3COCC(COCC(F)F)O3)cc2)c(C(F)(F)F)[nH]c1=O` (single isomer, unassigned) [Example 368, 5-(4-((6-((2,2-difluoroethoxy)methyl)-1,4-dioxan-2-yl)methoxy)phenyl)-2-oxo-6-(trifluoromethyl)-1,2-dihydropyridine-3-carboxamide], the pIC50 was 5.00 to 5.30. Take `C[C@@]12O[C@H](COc3ccc(-c4cc(C(N)=O)c(=O)[nH]c4C(F)(F)F)cc3)CO[C@@H]1C2(F)F` [Example 395, 55-(4-(((1R,3S,6S)-7,7-difluoro-1-methyl-2,5-dioxabicyclo[4.1.0]heptan-3-yl)methoxy)phenyl)-2-oxo-6-(trifluoromethyl)-1,2-dihydropyridine-3-carboxamide]: the pIC50 was 5.00 to 5.30.

As to `NC(=O)c1cc(-c2ccc(OC[C@@H]3COCC4(COC4)O3)cc2)c(C(F)(F)F)[nH]c1=O` [Example 415, (S)-5-(4-((2,5,8-trioxaspiro[3.5]nonan-6-yl)methoxy)phenyl)-2-oxo-6-(trifluoromethyl)-1,2-dihydropyridine-3-carboxamide], the pIC50 is 5.00 to 5.30.

For `CC1(OCC2COCC(COc3ccc(-c4cc(C(N)=O)c(=O)[nH]c4C(F)(F)F)cc3)O2)COC1` (single isomer, unassigned) [Example 379], the pIC50 is 5.00 to 5.30. On to `CN(C)C[C@@]1(C)COC[C@@H](COc2ccc(-c3cc(C(N)=O)c(=O)[nH]c3C(F)(F)F)cc2)O1` [Example 423, 5-(4-(((2S,6S)-6-((dimethylamino)methyl)-6-methyl-1,4-dioxan-2-yl)methoxy)phenyl)-2-oxo-6-(trifluoromethyl)-1,2-dihydropyridine-3-carboxamide], for which the pIC50 is 5.00 to 5.30.

With `COC(C)(C)C1COCC(COc2ccc(-c3cc(C(N)=O)c(=O)[nH]c3C(F)(F)F)cc2)O1` (stereo not shown) [Example 382, 5-(4-((6-(2-methoxypropan-2-yl)-1,4-dioxan-2-yl)methoxy)phenyl)-2-oxo-6-(trifluoromethyl)-1,2-dihydropyridine-3-carboxamide], the pIC50 was 5.00 to 5.30. Still for that read-out and setting: as for `NC(=O)c1cc(-c2ccc(OCC3COCC(Cn4cccn4)O3)cc2)c(C(F)(F)F)[nH]c1=O` (single isomer, unassigned) [Example 376, 5-(4-((6-((1H-pyrazol-1-yl)methyl)-1,4-dioxan-2-yl)methoxy)phenyl)-2-oxo-6-(trifluoromethyl)-1,2-dihydropyridine-3-carboxamide], the figure is 5.00 to 5.30. The same measure, in the same setting: as for `NC(=O)c1cc(-c2ccc(OCC3OCC4CCC3O4)cc2)c(C(F)(F)F)[nH]c1=O` (single isomer, unassigned) [Example 319, 5-(4-((3,8-dioxabicyclo[3.2.1]octan-2-yl)methoxy)phenyl)-2-oxo-6-(trifluoromethyl)-1,2-dihydropyridine-3-carboxamide], the figure is 5.00 to 5.30; as for `NC(=O)c1cc(-c2ccc(OCC3COCC(COCC4(F)CC4)O3)cc2)c(C(F)(F)F)[nH]c1=O` (single isomer, unassigned) [Example 364, 5-(4-((6-(((1-fluorocyclopropyl)methoxy)methyl)-1,4-dioxan-2-yl)methoxy)phenyl)-2-oxo-6-(trifluoromethyl)-1,2-dihydropyridine-3-carboxamide], 5.00 to 5.30; as for `NC(=O)c1cc(-c2ccc(OCC3COCCN3C3CC3)cc2)c(C(F)(F)F)[nH]c1=O` (stereo not shown) [Example 248, 5-(4-((4-cyclopropylmorpholin-3-yl)methoxy)phenyl)-2-oxo-6-(trifluoromethyl)-1,2-dihydropyridine-3-carboxamide], 5.00 to 5.30.

In the case of `CN1CCOCC1COc1ccc(-c2cc(C(N)=O)c(=O)[nH]c2C(F)(F)F)cc1` (stereo not shown) [Example 247, 5-(4-((4-methylmorpholin-3-yl)methoxy)phenyl)-2-oxo-6-(trifluoromethyl)-1,2-dihydropyridine-3-carboxamide], the pIC50 was 4.30 to 4.60. As to `CCOC[C@@]1(C)COC[C@@H](COc2ccc(-c3cc(C(N)=O)c(=O)[nH]c3C(F)(F)F)cc2)O1` [Example 428, 5-(4-(((2S,6S)-6-(ethoxymethyl)-6-methyl-1,4-dioxan-2-yl)methoxy)phenyl)-2-oxo-6-(trifluoromethyl)-1,2-dihydropyridine-3-carboxamide], the pIC50 was 5.00 to 5.30. Consider `C[C@@]1(CN2CC(F)(F)C2)COC[C@@H](COc2ccc(-c3cc(C(N)=O)c(=O)[nH]c3C(F)(F)F)cc2)O1` [Example 422, 5-(4-(((2S,6R)-6-((3,3-difluoroazetidin-1-yl)methyl)-6-methyl-1,4-dioxan-2-yl)methoxy)phenyl)-2-oxo-6-(trifluoromethyl)-1,2-dihydropyridine-3-carboxamide], for which the pIC50 is 5.00 to 5.30.

Still in this assay, the particulars now being: read-out: RNP_Hubei B.
`Cc1cc(-c2cc(C(N)=O)c(=O)[nH]c2C(F)(F)F)ccc1CN1CCOCC1` [Example 43, 5-(3-methyl-4-(morpholinomethyl)phenyl)-2-oxo-6-(trifluoromethyl)-1,2-dihydropyridine-3-carboxamide]: the pIC50 is 5.30 to 6.00.

Regarding `CC(O)c1ccc(-c2cc(C(N)=O)c(=O)[nH]c2C(F)(F)F)cc1` (stereo not shown) [Example 37, 5-(4-(1-hydroxyethyl)phenyl)-2-oxo-6-(trifluoromethyl)-1,2-dihydropyridine-3-carboxamide], the pIC50 is 4.30 to 4.60. Turning to `CO[C@H]1CCN(Cc2ccc(-c3cc(C(N)=O)c(=O)[nH]c3C(F)(F)F)cc2)C1` [Example 40, (S)-5-(4-((3-methoxypyrrolidin-1-yl)methyl)phenyl)-2-oxo-6-(trifluoromethyl)-1,2-dihydropyridine-3-carboxamide], the pIC50 is 4.30 to 4.60.

Turning to `CC(Oc1ccc(-c2cc(C(N)=O)c(=O)[nH]c2C(F)(F)F)cc1)c1cccc(C#N)c1` (single isomer, unassigned) [Example 97, (R or S)-5-(4-(1-(3-cyanophenyl)ethoxy)phenyl)-2-oxo-6-(trifluoromethyl)-1,2-dihydropyridine-3-carboxamide], the pIC50 is 4.30 to 4.60. In the case of `NC(=O)c1cc(-c2ccc(OCC3CCOCC3)cc2)c(C(F)(F)F)[nH]c1=O` [Example 56, 2-oxo-5-(4-((tetrahydro-2H-pyran-4-yl)methoxy)phenyl)-6-(trifluoromethyl)-1,2-dihydropyridine-3-carboxamide], the pIC50 is 4.30 to 4.60. As to `NC(=O)c1cc(-c2ccccc2)c(C(F)(F)F)[nH]c1=O` [Example 16, 2-oxo-5-phenyl-6-(trifluoromethyl)-1,2-dihydropyridine-3-carboxamide], the pIC50 was 4.30 to 4.60.

On to `CC(Oc1ccc(-c2cc(C(N)=O)c(=O)[nH]c2C(F)(F)F)cc1)c1cncnc1` (single isomer, unassigned) [Example 96, (R or S)-2-oxo-5-(4-(1-(pyrimidin-5-yl)ethoxy)phenyl)-6-(trifluoromethyl)-1,2-dihydropyridine-3-carboxamide], for which the pIC50 is 4.30 to 4.60. Turning to `CS(=O)(=O)NCc1ccc(-c2cc(C(N)=O)c(=O)[nH]c2C(F)(F)F)cc1` [Example 49, 5-(4-(methylsulfonamidomethyl)phenyl)-2-oxo-6-(trifluoromethyl)-1,2-dihydropyridine-3-carboxamide], the pIC50 is 4.30 to 4.60. The same measure, in the same setting: as for `NC(=O)c1cc(-c2ccc(OCC3CN(CC(F)F)CCO3)cc2)c(C(F)(F)F)[nH]c1=O` (stereo not shown) [Example 192, 5-(4-((4-(2,2-difluoroethyl)morpholin-2-yl)methoxy)phenyl)-2-oxo-6-(trifluoromethyl)-1,2-dihydropyridine-3-carboxamide], the figure is 4.30 to 4.60; as for `NC(=O)c1cc(-c2ccc(CN3C[C@H]4CC[C@@H](C3)O4)cc2)c(C(F)(F)F)[nH]c1=O` [Example 31, 5-(4-(((1R,5S)-8-oxa-3-azabicyclo[3.2.1]octan-3-yl)methyl)phenyl)-2-oxo-6-(trifluoromethyl)-1,2-dihydropyridine-3-carboxamide], 5.30 to 6.00; as for `CN(C)Cc1ccc(-c2cc(C(N)=O)c(=O)[nH]c2C(F)(F)F)cc1` [Example 45, 5-(4-((dimethylamino)methyl)phenyl)-2-oxo-6-(trifluoromethyl)-1,2-dihydropyridine-3-carboxamide], 4.30 to 4.60. Regarding `COCc1ccc(-c2cc(C(N)=O)c(=O)[nH]c2C(F)(F)F)cc1` [Example 15, 5-(4-(methoxymethyl)phenyl)-2-oxo-6-(trifluoromethyl)-1,2-dihydropyridine-3-carboxamide], the pIC50 was 4.30 to 4.60.

In the case of `NC(=O)c1cc(-c2ccc(CN3CCOCC3c3cccnc3)cc2)c(C(F)(F)F)[nH]c1=O` (stereo not shown) [Example 32, 2-oxo-5-(4-((3-(pyridin-3-yl)morpholino)methyl)phenyl)-6-(trifluoromethyl)-1,2-dihydropyridine-3-carboxamide], the pIC50 was 4.30 to 4.60. Turning to `NC(=O)c1cc(-c2ccc(OC(F)(F)C3COCCO3)cc2)c(C(F)(F)F)[nH]c1=O` (stereo not shown) [Example 389, 5-(4-((1,4-dioxan-2-yl)difluoromethoxy)phenyl)-2-oxo-6-(trifluoromethyl)-1,2-dihydropyridine-3-carboxamide], the pIC50 is 5.00 to 5.30. For `COC1CN(Cc2ccc(-c3cc(C(N)=O)c(=O)[nH]c3C(F)(F)F)cc2)C1` [Example 38, 5-(4-((3-methoxyazetidin-1-yl)methyl)phenyl)-2-oxo-6-(trifluoromethyl)-1,2-dihydropyridine-3-carboxamide], the pIC50 was 4.30 to 4.60. Consider `CO[C@@H]1CCN(Cc2ccc(-c3cc(C(N)=O)c(=O)[nH]c3C(F)(F)F)cc2)C1` [Example 41, (R)-5-(4-((3-methoxypyrrolidin-1-yl)methyl)phenyl)-2-oxo-6-(trifluoromethyl)-1,2-dihydropyridine-3-carboxamide], for which the pIC50 was 4.30 to 4.60. For the molecule `CC(Oc1ccc(-c2cc(C(N)=O)c(=O)[nH]c2C(F)(F)F)cc1)c1cccc(C#N)c1` (single isomer, unassigned) [Example 98, (R or S)-5-(4-(1-(3-cyanophenyl)ethoxy)phenyl)-2-oxo-6-(trifluoromethyl)-1,2-dihydropyridine-3-carboxamide], the pIC50 was 5.30 to 6.00.
